# Measurements taken from the supplement of paper PMC13207355.
# How the values were obtained:
# Details in all cases: exposure time: 72 h
# [1] = test system: FT3469 (normal neural stem cell line); assay: surviving fraction (nuclei count normalised to DMSO); higher = more cells surviving (less toxic)
# [2] = test system: E13 (patient-derived glioblastoma stem cells of classical subtype); assay: as above
# [3] = test system: E28 (patient-derived glioblastoma stem cells of classical subtype); assay: as above
# [4] = test system: E57 (patient-derived glioblastoma stem cells of mesenchymal subtype); assay: as above
# [5] = test system: E34 (patient-derived glioblastoma stem cells of proneural subtype); assay: as above
# [6] = test system: E21 (patient-derived glioblastoma stem cells of mesenchymal subtype); assay: as above
# [7] = test system: E31 (patient-derived glioblastoma stem cells of proneural subtype); assay: as above
# [8] = test system: FT3469; assay: phenotypic distance (Euclidean, principal components) from DMSO controls (arbitrary units); higher = stronger morphological change
# [9] = test system: E13; assay: as above
# [10] = test system: E28; assay: as above
# [11] = test system: E57; assay: as above
# [12] = test system: E34; assay: as above
# [13] = test system: E21; assay: as above
# [14] = test system: E31; assay: as above
# 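Throughout, for phenotypic distance (Euclidean, principal components) from DMSO controls: cell Painting imaging in 384-well plates, CellProfiler features reduced to at least 20 principal components, Euclidean distance versus same-plate DMSO vehicle wells (0.1% v/v), median over six images per well.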
# 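Throughout, for surviving fraction (nuclei count normalised to DMSO): nuclei counted by high-content imaging of Hoechst-stained cells in laminin-coated 384-well plates, relative to 0.1% DMSO vehicle wells, with staurosporine as cell-death control.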
smiles,measurement,setting,value
CN(C(=O)CN(CCO)CC(=O)N(C)C(C)(C)Cc1ccccc1)C(C)(C)Cc1ccccc1 [Oxethazaine],surviving fraction,[1]; 4.1 nM,0.961
same,surviving fraction,[1]; 12.3 nM,0.979
same,surviving fraction,[1]; 37 nM,1.02
same,surviving fraction,[1]; 111.1 nM,1.05
same,surviving fraction,[1]; 333.3 nM,0.978
same,surviving fraction,[1]; 1000 nM,1.1
same,surviving fraction,[1]; 3000 nM,0.933
same,surviving fraction,[2]; 4.1 nM,1.09
same,surviving fraction,[2]; 12.3 nM,0.968
same,surviving fraction,[2]; 37 nM,0.928
same,surviving fraction,[2]; 111.1 nM,1.04
same,surviving fraction,[2]; 333.3 nM,1.07
same,surviving fraction,[2]; 1000 nM,0.99
same,surviving fraction,[2]; 3000 nM,0.951
same,surviving fraction,[3]; 4.1 nM,1.08
same,surviving fraction,[3]; 12.3 nM,0.989
same,surviving fraction,[3]; 37 nM,1.05
same,surviving fraction,[3]; 111.1 nM,0.943
same,surviving fraction,[3]; 333.3 nM,1.15
same,surviving fraction,[3]; 1000 nM,1
same,surviving fraction,[3]; 3000 nM,1.16
same,surviving fraction,[4]; 4.1 nM,1.01
same,surviving fraction,[4]; 12.3 nM,0.936
same,surviving fraction,[4]; 37 nM,0.966
same,surviving fraction,[4]; 111.1 nM,0.964
same,surviving fraction,[4]; 333.3 nM,0.991
same,surviving fraction,[4]; 1000 nM,0.948
same,surviving fraction,[4]; 3000 nM,1
same,surviving fraction,[5]; 4.1 nM,1.02
same,surviving fraction,[5]; 12.3 nM,0.88
same,surviving fraction,[5]; 37 nM,1.05
same,surviving fraction,[5]; 111.1 nM,0.971
same,surviving fraction,[5]; 333.3 nM,1.19
same,surviving fraction,[5]; 1000 nM,1.2
same,surviving fraction,[5]; 3000 nM,0.914
same,surviving fraction,[6]; 4.1 nM,0.958
same,surviving fraction,[6]; 12.3 nM,1
same,surviving fraction,[6]; 37 nM,1.03
same,surviving fraction,[6]; 111.1 nM,0.955
same,surviving fraction,[6]; 333.3 nM,1.12
same,surviving fraction,[6]; 1000 nM,0.969
same,surviving fraction,[6]; 3000 nM,1.08
same,surviving fraction,[7]; 4.1 nM,0.961
same,surviving fraction,[7]; 12.3 nM,0.975
same,surviving fraction,[7]; 37 nM,1.03
same,surviving fraction,[7]; 111.1 nM,0.93
same,surviving fraction,[7]; 333.3 nM,1.09
same,surviving fraction,[7]; 1000 nM,1.01
same,surviving fraction,[7]; 3000 nM,1.01
same,phenotypic distance,[8]; 4.1 nM,1.79
same,phenotypic distance,[8]; 12.3 nM,0.53
same,phenotypic distance,[8]; 37 nM,0.88
same,phenotypic distance,[8]; 111.1 nM,0.534
same,phenotypic distance,[8]; 333.3 nM,0.669
same,phenotypic distance,[8]; 1000 nM,0.43
same,phenotypic distance,[8]; 3000 nM,1.12
same,phenotypic distance,[9]; 4.1 nM,0.675
same,phenotypic distance,[9]; 12.3 nM,0.799
same,phenotypic distance,[9]; 37 nM,3.23
same,phenotypic distance,[9]; 111.1 nM,0.762
same,phenotypic distance,[9]; 333.3 nM,0.641
same,phenotypic distance,[9]; 1000 nM,3.59
same,phenotypic distance,[9]; 3000 nM,0.501
same,phenotypic distance,[10]; 4.1 nM,0.766
same,phenotypic distance,[10]; 12.3 nM,0.639
same,phenotypic distance,[10]; 37 nM,0.581
same,phenotypic distance,[10]; 111.1 nM,0.521
same,phenotypic distance,[10]; 333.3 nM,0.535
same,phenotypic distance,[10]; 1000 nM,0.928
same,phenotypic distance,[10]; 3000 nM,0.763
same,phenotypic distance,[11]; 4.1 nM,0.467
same,phenotypic distance,[11]; 12.3 nM,0.582
same,phenotypic distance,[11]; 37 nM,0.373
same,phenotypic distance,[11]; 111.1 nM,0.789
same,phenotypic distance,[11]; 333.3 nM,0.553
same,phenotypic distance,[11]; 1000 nM,0.494
same,phenotypic distance,[11]; 3000 nM,1.79
same,phenotypic distance,[12]; 4.1 nM,0.701
same,phenotypic distance,[12]; 12.3 nM,0.608
same,phenotypic distance,[12]; 37 nM,0.585
same,phenotypic distance,[12]; 111.1 nM,0.716
same,phenotypic distance,[12]; 333.3 nM,0.77
same,phenotypic distance,[12]; 1000 nM,0.595
same,phenotypic distance,[12]; 3000 nM,0.878
same,phenotypic distance,[13]; 4.1 nM,1.27
same,phenotypic distance,[13]; 12.3 nM,0.301
same,phenotypic distance,[13]; 37 nM,0.673
same,phenotypic distance,[13]; 111.1 nM,0.767
same,phenotypic distance,[13]; 333.3 nM,0.702
same,phenotypic distance,[13]; 1000 nM,0.599
same,phenotypic distance,[13]; 3000 nM,0.942
same,phenotypic distance,[14]; 4.1 nM,1.19
same,phenotypic distance,[14]; 12.3 nM,0.518
same,phenotypic distance,[14]; 37 nM,0.559
same,phenotypic distance,[14]; 111.1 nM,0.664
same,phenotypic distance,[14]; 333.3 nM,0.743
same,phenotypic distance,[14]; 1000 nM,0.675
same,phenotypic distance,[14]; 3000 nM,1.16
